Measured values from paper PMC11046306, “METTL17 is an Fe-S cluster checkpoint for mitochondrial translation” (Molecular cell, 2024).

Molecular target: T1, mS29 (Saccharomyces cerevisiae, UniProt Q01163)
T1 construct: gene RSM23; native subunit within the mitoribosomal small subunit purified from yeast mitochondria
Experiment: cryo-EM structure of the SSU […] Å
Type: binding
Conditions: within the mitoribosomal SSU; nucleotide pocket; reassigned from GDP

Structure (SMILES): Nc1ncnc2c1ncn2[C@@H]1O[C@H](COP(=O)(O)OP(=O)(O)OP(=O)(O)O)[C@@H](O)[C@H]1O [adenosine triphosphate]
- cryo-EM structure of the SSU 2.3 Å: guanosine diphosphate (GDP) to adenosine triphosphate (ATP) in the nucleotide pocket of the protein mS29
